The test system of assay [1] is dsDNA (DNA, duplex) CAATCGGATCGAATTCGATCCGATTG
Put plainly: FRET melting (real-time PCR). The conditions noted are these: 50 mM KCl; Tris-HCl pH 7.4; 1 μM oligonucleotide, EKB 8 eq (8 μM). (Real-time PCR tracks product formation cycle by cycle.)

The test system of assay [2] is G4 (DNA, G4) GGGGAGGGGCTGGGAGGGCCCGGAGGGGGCTGGGCCGGGGACCCGGGAGGGGTCGGGACGGGGCGGGG
Put plainly: FRET melting (real-time PCR). As to conditions: 50 mM KCl; Tris-HCl pH 7.4; 1 μM oligonucleotide, EKB 8 eq (8 μM).

Assay [3] deals with c-Myc G4 (DNA, G4) GCGCTTATGGGGAGGGTGGGGAGGGTGGGGAAGGTGGGGAGGAGAC
Put plainly: FRET melting (real-time PCR). The conditions noted are these: 50 mM KCl; Tris-HCl pH 7.4; 1 μM oligonucleotide, EKB 8 eq (8 μM).

Assay [4] has as its system c-KIT G4 (DNA, G4) AGGGAGGGCGCTGGGAGGAGGGG
Put plainly: FRET melting (real-time PCR). The conditions noted are these: 50 mM KCl; Tris-HCl pH 7.4; 1 μM oligonucleotide, EKB 8 eq (8 μM).

For assay [5], the system named is Bcl-2 G4 (DNA, G4) CGGGCGGGAGCGCGGCGGGCGGGCGGG
The experiment in a line: FRET melting (real-time PCR). As to conditions: 50 mM KCl; Tris-HCl pH 7.4; 1 μM oligonucleotide, EKB 8 eq (8 μM).

Assay [6] relates to k-RAS G4 (DNA, G4) AGGGCGGTGTGGGAAGAGGGAAGAGGGGGAGG
The experiment in a line: FRET melting (real-time PCR). As to conditions: 50 mM KCl; Tris-HCl pH 7.4; 1 μM oligonucleotide, EKB 8 eq (8 μM).

The test system of assay [7] is c-Myc G4 (UV titration) (DNA, G4) GCGCTTATGGGGAGGGTGGGGAGGGTGGGGAAGGTGGGGAGGAGAC
The experiment in a line: UV-visible absorption titration. The conditions noted are these: 100 mM KCl; 10 mM Tris-HCl pH 7.4, room temperature; EKB 20 μM, G4:EKB 1:1 to 8:1.

In assay [8] the test system is Bcl-2 G4 (UV titration) (DNA, G4) CGGGCGGGAGCGCGGCGGGCGGGCGGG
The experiment in a line: UV-visible absorption titration. The conditions noted are these: 100 mM KCl; 10 mM Tris-HCl pH 7.4, room temperature; EKB 20 μM, G4:EKB 1:1 to 8:1.

Assay [9] relates to c-KIT G4 (UV titration) (DNA, G4) AGGGAGGGCGCTGGGAGGAGGGG
Put plainly: UV-visible absorption titration. As to conditions: 100 mM KCl; 10 mM Tris-HCl pH 7.4, room temperature; EKB 20 μM, G4:EKB 1:1 to 8:1.

Assay [10] relates to k-RAS G4 (UV titration) (DNA, G4) AGGGCGGTGTGGGAAGAGGGAAGAGGGGGAGG
Put plainly: UV-visible absorption titration. The conditions noted are these: 100 mM KCl; 10 mM Tris-HCl pH 7.4, room temperature; EKB 20 μM, G4:EKB 1:1 to 8:1.

Broadly, the ΔTm is the change in melting temperature against a reference sample.

Turning to `CC(C)=CCc1cc(-c2cc(=O)c3c(O)cc(O)c(CC=C(C)C)c3o2)cc(O)c1O`, the ΔTm entry is “–1.16 °C” in assay [1]; 2.12 °C in assay [2]; 3.90 °C in [3]; 4.17 °C in assay [4]; 7.09 °C in assay [5]; 3.22 °C in assay [6]. For the same molecule, the binding entry in assay [7], in [8], in assay [9] and in assay [10] was “yes” throughout.

For the origin of these results see PMC13107025 (2025).
